In PubChem BioAssay (NCI) one finds TGI data, which are given here for six molecules.

Among the test systems are SF-539 CNS; SK-OV-3 ovarian; MDA-MB-231 breast; HCC-2998 colon; HT29 colon; MCF7 breast; OVCAR-8 ovarian; PC-3 prostate; NCI-H460 lung; CCRF-CEM leukemia; OVCAR-4 ovarian; SNB-19 CNS.
What all share (assay): DTP human tumour cell line panel, 48 h

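Method: 48-hour compound exposure of cells in 96-well plates, five concentrations, linear interpolation of endpoints. The concentration for full growth arrest is given as TGI.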 Where only a bound is given, the exact number is not on record here.

A word on the TGI: it is the concentration at which net growth stops. Low readings indicate greater sensitivity of the cells, high ones lower sensitivity of the cells. For the molecule `COC1=CC(=O)C2=C(C[C@@]3(C)C(=C2)C(CO)=CC[C@H]3O)C1=O`, the concentration for total growth inhibition (TGI) in the assay on SF-539 CNS is 34.7 µM; in the assay with SK-OV-3 ovarian, greater than 100 µM; in the assay with MDA-MB-231 breast it was 13.2 µM; in the assay on HCC-2998 colon it was 83.1 µM; in the assay on HT29 colon it was greater than 100 µM; in the assay on MCF7 breast, 32.3 µM. The TGI is 32.9 µM in the assay with OVCAR-8 ovarian; 69.1 µM in the assay with PC-3 prostate; 60.7 µM in the assay with NCI-H460 lung; 38.4 µM in the assay with CCRF-CEM leukemia; 31.8 µM with OVCAR-4 ovarian; greater than 100 µM with SNB-19 CNS.
For `O=C1O/C(=C\c2ccc(O)cc2)C(c2ccc(O)c(Cl)c2)=C1Cl`, the TGI in the assay with SF-539 CNS was greater than 100 µM; with SK-OV-3 ovarian, greater than 100 µM; with MDA-MB-231 breast, greater than 100 µM; with HCC-2998 colon, 89.9 µM; in the assay with HT29 colon, greater than 100 µM; in the assay on MCF7 breast, 47.4 µM. The TGI in the assay with OVCAR-8 ovarian, with PC-3 prostate, in the assay with NCI-H460 lung, in the assay with CCRF-CEM leukemia, with OVCAR-4 ovarian and in the assay on SNB-19 CNS was greater than 100 µM each time.
With `Cc1cc2nc(N3C(=O)/C(=C/c4ccc(N(C)C)cc4)N=C3c3ccccc3)sc2cc1C`, the concentration for total growth inhibition (TGI) is 53.4 µM with SF-539 CNS; greater than 100 µM in the assay on SK-OV-3 ovarian; 96 µM with MDA-MB-231 breast; 37.6 µM with HCC-2998 colon; 44.2 µM in the assay with HT29 colon; 21.3 µM in the assay with MCF7 breast. The TGI with OVCAR-8 ovarian was greater than 100 µM; in the assay on PC-3 prostate it was 43.5 µM; in the assay with NCI-H460 lung, greater than 100 µM; in the assay on CCRF-CEM leukemia it was 34 µM; in the assay with OVCAR-4 ovarian it was greater than 100 µM; with SNB-19 CNS, greater than 100 µM.
On to `N#Cc1ccc(C2NN=CC23C(=O)c2ccccc2OC3c2ccccc2)cc1` (configuration not stated), for which the TGI in the assay on SF-539 CNS is greater than 100 µM; in the assay with SK-OV-3 ovarian, greater than 100 µM; in the assay on MDA-MB-231 breast, greater than 100 µM; with HCC-2998 colon, greater than 100 µM; with HT29 colon, greater than 100 µM; in the assay with MCF7 breast it was 87.4 µM. Further, the total growth inhibition concentration (TGI) in the assay on OVCAR-8 ovarian, in the assay on PC-3 prostate, in the assay with NCI-H460 lung, in the assay with CCRF-CEM leukemia, in the assay with OVCAR-4 ovarian and in the assay on SNB-19 CNS was greater than 100 µM in each case.
Turning to `O=c1c2c(F)c(F)c(F)c(F)c2sc2nccn12`, the TGI stood at 31.4 µM with SF-539 CNS; 36 µM with SK-OV-3 ovarian; 35.9 µM with MDA-MB-231 breast; 31.9 µM with HCC-2998 colon; 34.7 µM with HT29 colon; 37.9 µM in the assay with MCF7 breast. Further, the concentration for total growth inhibition (TGI) in the assay with OVCAR-8 ovarian was determined as 44.8 µM; with PC-3 prostate it was 35.9 µM; in the assay with NCI-H460 lung, 27.3 µM; in the assay with CCRF-CEM leukemia, 29.6 µM; in the assay on OVCAR-4 ovarian it was 35.8 µM; in the assay on SNB-19 CNS it was 35.9 µM.
In the case of `Cc1ccc(N=C2C(c3ccccc3)=C(SC3=C(c4ccccc4)C(=Nc4ccc(C)cc4)c4ccccc43)c3ccccc32)cc1`, the TGI was 24.6 µM with SF-539 CNS; 35.4 µM in the assay on SK-OV-3 ovarian; 38.7 µM with MDA-MB-231 breast; greater than 54.1 µM in the assay on HCC-2998 colon; greater than 48.9 µM with HT29 colon; greater than 100 µM in the assay on MCF7 breast. Besides, the TGI in the assay with OVCAR-8 ovarian was 24.7 µM; with PC-3 prostate, greater than 100 µM; in the assay with NCI-H460 lung it was 36.3 µM; in the assay with CCRF-CEM leukemia it was greater than 100 µM; with OVCAR-4 ovarian, 17.2 µM; in the assay on SNB-19 CNS, 17.1 µM.
